Experimental data published in patent US20090137565A1, “Method for treatment of movement disorders” (The Trustees of Columbia University in the City of New York, priority 2004, published 2009).

What was measured:
[1] = test system: severe alcohol-responsive posthypoxic myoclonus; test: Single-patient open-label dose-finding trial of GHB, blinded Unified Myoclonus Rating Scale (UMRS); type: in vivo, human; details: for UMRS I (Self Assessment) score: max 44, 0 gm score 33; for UMRS VIII (Severity) score: max 3, 0 gm score 2; for UMRS I (Global Disability) score / UMRS VI (MD Global Disab.) score: max 4, 0 gm score 3; for UMRS III (Stimulus-Sens.) score: max 17, 0 gm score 12; for UMRS V (Funct. Performance) score: max 20, 0 gm score 20; for UMRS II (Myoclonus @ Rest) score: max 128, 0 gm score 21; for UMRS IV (Action Myoclonus) score: max 160, 0 gm score 108; for UMRS VII (Neg. Myoclonus) score: present (1) or absent (0), 0 gm score 1
Experimental: An open-label, dose-finding, blinded rating trial of GHB in a single patient with severe, debilitating alcohol-responsive posthypoxic myoclonus refractory to treatment with standard anti-myoclonic agents was conduced. […] Intensity and severity of myoclonus was measured using the Unified Myoclonus Rating Scale (UMRS), a non-invasive clinical rating scale. In addition, the patient was videotaped while the UMRS was performed, so that myoclonus could be scored by a blinded rater.
Given the dramatic response to alcohol, a single-patient, open-label, dose-ranging trial to assess the tolerability and efficacy of GHB (Xyrem®, Orphan Medical, Inc.) as a treatment for alcohol-responsive posthypoxic myoclonus was designed, which was approved by The Columbia University Medical Center Institutional Review Board. After obtaining informed consent, they were videotaped during performance of the Unified Myoclonus Rating Scale (UMRS). The UMRS is a validated clinical rating instrument that measures the severity and intensity of myoclonus and has been used in other trials of anti-myoclonic agents. Frucht S. J., et al., Adv Neurology Vol. 89 Lippincott Williams and Wilkins, Philadelphia, 2002:361-376. The scale consists of eight sections: section I: patient questionnaire (11 items); section II: myoclonus at rest (frequency and amplitude, 16 items); section III: stimulus-sensitive myoclonus (17 items); section IV: severity of myoclonus with action (frequency and amplitude, 20 items); section V: performance on functional tests (5 items); section VI: physician rating of patient's global disability (1 item); section VII: presence of negative myoclonus (1 item); section VIII: severity of negative myoclonus (1 item). Each item is rated on a scale of 0 to 4, with higher scores assigned to myoclonus of greater severity or frequency. For section III stimulus-sensitivity is either present (1) or absent (0); section VII negative myoclonus either present (1) or absent (0); and section VIII negative myoclonus absent (0) to severe (3).
(§1) All office visits and the UMRS scale were performed by the supervisory physician. The patient came to the office for five visits, each separated by two weeks (time 0, 2 weeks, 4 weeks, 6 weeks and 8 weeks). At each visit, the physician examined the patient, and inquired about any adverse events. The physician performed the UMRS while the patient was videotaped. Xyrem® was dispensed by the physician at each visit.
(§2) At the initial visit the UMRS was performed and videotaped, 1 gm of GHB was administered by mouth, and they were monitored in the office for one hour. They then took 1 gm twice daily for two weeks, at which time they returned to the office. One hour after receiving 2 grams of GHB, the UMRS was performed and videotaped and for the next two weeks they took 2 grams twice daily. Two weeks later, the UMRS was performed and videotaped one hour after receiving 3 grams of GHB, and after two weeks of 3 grams twice daily, the same procedure was performed after receiving 4 grams in the office. After taking 4 grams twice daily for two weeks, they returned for UMRS videotaping, and the decision was made to continue the target dose of 4 gm twice daily.
A movement disorder neurologist blinded to the trial design scored videotapes of the baseline visit, 2 gm, 3 gm, 4 gm (first) and 4 gm (second) visits in random order. The blinded rater was not provided with treatment scores of section I of the UMRS (patient self-assessment) in order to maintain the rating blind. Scores for each section were calculated as described previously. Frucht S. J., et al., Adv Neurology Vol. 89. Lippincott Williams and Wilkins, Philadelphia, 2002:361-376.

[2] = Single-patient GHB trial: tolerability / adverse events; type: in vivo, human
Experimental: as §1, §2
The clinical trial was designed with a very slow titration schedule, in order to prevent possible side effects such as sedation, worsening of ataxia or orthostasis. Like most forms of myoclonus, posthypoxic myoclonus disappears during sleep and it is therefore necessary to administer the drug during waking hours in order to observe its effects.

In the case of `O=C([O-])CCCO.[Na+]` [GHB, 4-hydroxybutanoic acid monosodium salt], the “resting and stimulus-sensitive myoclonus” value ([1]; 2 gm twice daily) is reported as “markedly improved”, the “UMRS I (Self Assessment) score” value ([1]; 2 gm, 1 h after oral dose) is reported as 31 and the “UMRS VIII (Severity) score” value ([1]; 2 gm) is reported as 2. For the same compound, the “UMRS I (Global Disability) score” value ([1]; 2 gm) was 3, the “UMRS VI (MD Global Disab.) score” value ([1]; 2 gm) was 2 and the “UMRS III (Stimulus-Sens.) score” value ([1]; 2 gm) was 5. The “UMRS V (Funct. Performance) score” value ([1]; 2 gm) was 10, the “UMRS II (Myoclonus @ Rest) score” value ([1]; 2 gm) was 8 and the “UMRS IV (Action Myoclonus) score” value ([1]; 2 gm) was 70. The “UMRS VII (Neg. Myoclonus) score” value ([1]; 2 gm) was 1, the “resting and stimulus-sensitive myoclonus” value ([1]; 3 gm twice daily) was “virtually disappeared” and the “UMRS VIII (Severity) score” value ([1]; 3 gm) was 2. For the same compound, the “UMRS I (Global Disability) score” value ([1]; 3 gm) was 2, the “UMRS VI (MD Global Disab.) score” value ([1]; 3 gm) was 2 and the “UMRS III (Stimulus-Sens.) score” value ([1]; 3 gm) was 1. For the same compound, the “UMRS V (Funct. Performance) score” value ([1]; 3 gm) was 8, the “UMRS I (Self Assessment) score” value ([1]; 3 gm) was 25 and the “UMRS II (Myoclonus @ Rest) score” value ([1]; 3 gm) was 3. The “UMRS IV (Action Myoclonus) score” value ([1]; 3 gm) was 64, the “UMRS VII (Neg. Myoclonus) score” value ([1]; 3 gm) was 1 and the “UMRS VIII (Severity) score” value ([1]; 4 gm (2nd visit)) was 2. For the same compound, the “UMRS I (Global Disability) score” value ([1]; 4 gm (2nd visit)) was 2, the “UMRS VI (MD Global Disab.) score” value ([1]; 4 gm (2nd visit)) was 2 and the “UMRS III (Stimulus-Sens.) score” value ([1]; 4 gm (2nd visit)) was 3. The “UMRS V (Funct. Performance) score” value ([1]; 4 gm (2nd visit)) was 4, the “UMRS I (Self Assessment) score” value ([1]; 4 gm (2nd visit)) was 15 and the “UMRS II (Myoclonus @ Rest) score” value ([1]; 4 gm (2nd visit)) was 1. For the same compound, the “UMRS IV (Action Myoclonus) score” value ([1]; 4 gm (2nd visit)) was 58, the “UMRS VII (Neg. Myoclonus) score” value ([1]; 4 gm (2nd visit)) was 1 and the “UMRS VIII (Severity) score” value ([1]; 4 gm) was 2. The “UMRS I (Global Disability) score” value ([1]; 4 gm) was 2, the “UMRS VI (MD Global Disab.) score” value ([1]; 4 gm) was 2 and the “UMRS III (Stimulus-Sens.) score” value ([1]; 4 gm) was 1. The “UMRS V (Funct. Performance) score” value ([1]; 4 gm) was 7, the “UMRS I (Self Assessment) score” value ([1]; 4 gm) was 18 and the “UMRS II (Myoclonus @ Rest) score” value ([1]; 4 gm) was 1. The “UMRS IV (Action Myoclonus) score” value ([1]; 4 gm) was 53, the “UMRS VII (Neg. Myoclonus) score” value ([1]; 4 gm) was 1 and the “myoclonus at rest and stimulus-sensitive myoclonus” value ([1]; UMRS and blinded video rating, divided doses during the day) was “complete resolution”. For the same compound, the duration of benefit ([1]; after the first 2 gm dose) was “approximately 3 hours”, the “time at which benefit peaked” value ([1]; after the first 2 gm dose) was “one” and the “time to marked diminution of myoclonus at rest and stimulus-sensitivity” value ([1]; after the first 2 gm dose) was no more than 20 min. For the same compound, the “change in clinical examination” value ([1]; after the initial 1 gm dose) was “Little difference”, the “time of peak effect” value ([1]; each dose greater than or equal to 2 gm) was “one” and the “negative myoclonus, blinded videotape review” value ([1]; human, in vivo) was “did not confirm the examiner's impression that negative myoclonus improved”. For the same compound, the “improvement of functional performance (section V)” value ([1]; writing, spiral copying, pouring, using a spoon) was 80%, the “adverse effect reported by patient” value ([2]; after the first 1 gm dose) was “slight dizziness” and the tolerability ([2]; divided doses during the day) was “well tolerated”. The sedation ([2]; two daytime doses of 4 gm, concurrent clonazepam and levetiracetam) was “without significant sedation”.
